Source: patent US8778889B2, “Antimicrobial decapeptide oral hygiene treatment” (The United States of America as represented by the …, priority 2003, dated 2014)
Ends that are not written are not given here.

Assays:
[1] = tested on: oral biofilms formed on saliva-coated HA disks by salivary bacteria; assay: In vitro plaque assay, viable counts of oral biofilms on saliva-coated HA disks; type: cell-based, human salivary bacteria; conditions: KSL 200 μg/ml
Text: In conjunction with the dual flow cell system, a modification of an in vitro plaque model of biofilm formation described by Guggenheim et al. (Guggenheim et al., 2001) was used to determine the effects of tested antimicrobials and other agents on developed oral biofilms (see Appendix I for details). HA disks (Clarkson, south Williamsport, Pa.) were employed as substrates for salivary bacteria to form biofilms.
To determine the inhibitory activity of KSL on developed oral biofilms, disks containing 45 h-old biofilms were transferred to wells containing aqueous KSL (200 μg/ml; 1 ml/well). Following 30 min exposure at 37° C., disks were rinsed with 3×1 ml of saline and transferred to sterile 15 ml polypropylene tubes containing 1 ml PBS. Biofilm cells adherent to surfaces (after treatment) were recovered by sonicating for 2 min at 5 watts with a Microson ultrasonic cell disrupter equipped with a cup horn (Misonix Inc., Farmingdale, N.Y.). Settings including the time interval used in the sonication were predetermined empirically to yield maximal recovery of adherent biofilm cells.
The effect of KSL on disrupted biofilms was assessed by recovering biofilm cells from HA disks (45 h-old biofilms) through sonication as described above. The detached biofilm cells (in sterile dH2O) were mixed with an equal volume of aqueous KSL to obtain a final peptide concentration of 200 μg/ml, and the reaction mixtures incubated at 37° C. for 30 min. The interactions of KSL and suspended biofilm cells were terminated by washing in PBS.
To determine the effect of the surface-active agent (benzalkonium chloride; Sigma, St. Louis, Mo.) in promoting the killing of intact biofilms by KSL, 66 h-old oral biofilms were treated with KSL (200 μg/ml), benzalkonium chloride (0.001%), or a combination of the two agents, followed by viable counts determinations and confocal laser scanning microscopy of treated samples.
Viable counts of biofilm cells derived from treated disks or disrupted biofilms were determined by spiral plating serially diluted samples onto blood agar plates. Distilled water or 0.12% aqueous chlorhexidine digluconate (Sigma) was used as the negative or positive control, respectively. The 45 h-old biofilms were exposed to chlorhexidine for 1 min, and to water for 30 min at 37° C.
In this assay, HA disks (Clarkson Chromatography Products, Inc., South Williamsport, Pa.) were used as surfaces on which plaque formation can occur. Before use, sterile HA disks were conditioned in the wells of a 24-well microtiter plate (Becton Dickinson, Franklin Lakes, N.J.) containing 50% sterile saliva by incubating at room temperature for a minimum of two hours on a rotating platform at 95 rpm. The saliva was removed and each well inoculated with isolated salivary bacteria at a bacterial cell concentration of 1.0×10^7 cells/ml in sterile 50% whole saliva. After two hours of incubation (with rotation) at 37° C. to allow the bacteria to adhere to surfaces, unattached bacteria were removed and replaced with supplemented saliva-based medium. The plates were incubated with rotation at 37° C. for 45 h (with medium replaced three times), or 66 h (with medium replaced five times) in a CO2 incubator prior to treatments, and the recovery of biofilm cells from treated or untreated disks.
In these studies, KSL or KSL-W was used at 200 μg/ml, whereas Bzl and CPC were used at 0.001% and 0.0025%, respectively. […]

[2] = Procedure: The chewing gum formulations were prepared following a procedure described previously. The gum base was heated at a temperature between 50 and 60° C. for melting. When the gum base was of the proper fluid consistency, the KSL was added as a fine powder along with the other components. The temperature was kept constant while mixing the components with the gum base in a mortar. After mixing, the homogenous chewing gum mixture was extruded, cut into squares of approximate shape and size and hardened at room temperature overnight. The composition of the gum was as follows: 550 mg of gum base, 420 mg of sorbitol, 10 mg of mannitol, 10 mg of saccharin, and 10, 20 or 30 mg of KSL (total weight: approximately 1 g). In vitro release study of KSL from chewing gums was carried out using an in vitro chewing release apparatus consisting of two modules (AB FIA, Lund, Sweden) (FIG. 1). Each module consists of a thermostatted glass cell in which two vertically oriented pistons holding an upper and a lower chewing plate are mounted. The cells were filled with 40 ml of artificial saliva and the chewing gum was loaded onto the lower chewing surface. […] The released amount of KSL was determined by RP-HPLC.

Substance: KKVVFKVKFK-NH2 [KSL, Lys-Lys-Val-Val-Phe-Lys-Val-Lys-Phe-Lys-NH2]
- reduction of viability, disrupted biofilms, versus dH2O-treated control cells ([1]; 45 h-old biofilms disrupted by sonication, 30 min, 37° C.): 1.8 log
- effect on viability of intact biofilms compared to water treatment ([1]; 66 h-old oral biofilms, benzalkonium chloride 0.001%): less effect on the viability
- reduction of viable counts, intact biofilms ([1]; intact 45-h-old biofilms, 30 min, 37° C.): small reduction of viable counts
- stability of KSL during the gum manufacturing process (HPLC of released KSL) [2]: remains stable
